ChEMBL document CHEMBL4000244, “Probing A-form DNA: A fluorescent aminosugar probe and dual recognition by anthraquinone-neomycin conjugates” (Bioorg Med Chem, 2017)

Columns and labels:
[1] = Binding affinity to 5'-GGGGGGGC-3' DNA hairpin assessed as change in fluorescence intensity at 1 uM after 45 mins by fluorescence quenching analysis relative to control
[2] = Binding affinity to 5'-CCCGCGCG-3' DNA hairpin assessed as change in fluorescence intensity at 1 uM after 45 mins by fluorescence quenching analysis relative to control
[3] = Binding affinity to 5'-CCCCCGGG-3' DNA hairpin assessed as change in fluorescence intensity at 1 uM after 45 mins by fluorescence quenching analysis relative to control
[4] = Binding affinity to 5'-GCGCGCCC-3' DNA hairpin assessed as change in fluorescence intensity at 1 uM after 45 mins by fluorescence quenching analysis relative to control
[5] = Binding affinity to 5'-GGGGCCCC-3' DNA hairpin assessed as change in fluorescence intensity at 1 uM after 45 mins by fluorescence quenching analysis relative to control
[6] = Binding affinity to 5'-GCCCCGGC-3' DNA hairpin assessed as change in fluorescence intensity at 1 uM after 45 mins by fluorescence quenching analysis relative to control

NCC1O[C@H](O[C@H]2[C@@H](O)[C@H](O[C@@H]3[C@@H](O)[C@H](N)C[C@H](N)[C@H]3O[C@H]3O[C@H](CN)[C@@H](O)[C@H](O)[C@H]3N)O[C@@H]2CSCCNC(=O)CCSCC(=O)Nc2ccc(-c3c4ccc(=O)cc-4oc4cc(O)ccc34)c(C(=O)O)c2)[C@H](N)[C@@H](O)[C@@H]1O (stereo partly specified)
Activity [1]: 29.8% | Activity [2]: 51.8% | Activity [3]: 35.1% | Activity [4]: 49.8% | Activity [5]: 15% | Activity [6]: 28.6%
